Assay results: patent US20100248390A1, “COMPOSITIONS AND METHODS FOR IDENTIFYING LIGANDS OF ODORANT RECEPTORS” (DUKE UNIVERSITY, priority 2009, published 2010)

Target: T1, human odorant receptors (ORs) (Homo sapiens, UniProt Q9H255)
T1 construct: OR open reading frames were amplified from genomic DNA; expressed in transfected cells; host or cells: Hana3A cells, co-transfected with RTP1S, CRE-luciferase and pRL-SV40
T1 sequence (Q9H255 1-320): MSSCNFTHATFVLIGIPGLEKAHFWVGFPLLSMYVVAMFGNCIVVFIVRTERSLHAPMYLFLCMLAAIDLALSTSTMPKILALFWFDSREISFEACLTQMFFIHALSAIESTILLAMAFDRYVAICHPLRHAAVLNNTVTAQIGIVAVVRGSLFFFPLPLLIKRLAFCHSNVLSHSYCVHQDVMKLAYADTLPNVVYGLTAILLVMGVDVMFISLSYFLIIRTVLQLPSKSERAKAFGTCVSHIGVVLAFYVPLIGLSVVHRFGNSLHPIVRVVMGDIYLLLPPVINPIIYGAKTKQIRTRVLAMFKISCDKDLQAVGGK
Assay: CRE-luciferase assay of odorant receptor activation (Dual-Glo, Hana3A cells, RTP1S), dose-response EC50
Assay type: cell-based
Conditions: receptor OR51E2; read-out: log EC50 of odorant at OR51E2 (0 = no response) (converted)
Method in brief: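 Hana3A cells were co-transfected with Rho-tagged OR, RTP1S, CRE-luciferase and pRL-SV40, then exposed to odorant in CD293 medium for 4 hrs at 37° C. Firefly luminescence was divided by Renilla and normalized as (LN−Lmin)/(Lmax−Lmin) per plate set. Each dose was tested at least three times, and EC50 came from sigmoidal fits.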

EC50: 109 µM
Compound: CCC(=O)O [Propionic acid]
